Measured values: patent US9890153B2, “Substituted 1H-pyrrolo [2, 3-b] pyridine and 1H-pyrazolo [3, 4-b] pyridine derivatives as salt inducible kinase 2 (SIK2) inhibitors” (Arrien Pharmaceuticals LLC, priority 2012, dated 2018)

Assays:
Type in all cases: biochemical
[1] = molecular target: SIK2 (QIK) (SEQ ID NO: 11) (Homo sapiens, UniProt Q9H0K1); assay: SIK2 kinase assay (radiometric, 10 μM ATP); conditions: read-out: SIK2 (QIK) (SEQ ID NO: 11) kinase inhibition result
In short: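 Radiometric filter-binding format: enzyme and substrate peptide incubated with or without compound and ATP mix for 20 min at 30 °C. Reaction stopped with phosphoric acid, captured on filter mats and washed with 0.8% phosphoric acid before counting.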

SIK1 (SEQ ID NO: 10) = molecular target: T1, SIK1 (SEQ ID NO: 10) (Homo sapiens, UniProt P57059); assay: Protein kinase assay, SIK1; conditions: read-out: SIK1 (SEQ ID NO: 10) kinase inhibition result
T1 construct: Reaction Biology Corporation (assay service, HotSpot panel)
Experimental: (§1) Briefly, specific kinase/substrate pairs along with required cofactors were prepared in reaction buffer; 20 mM Hepes (pH 7.5), 10 mMmgCl2, 1 mM EGTA, 0.02% Brij35, 0.02 mg/ml BSA, 0.1 mM Na3VO4, 2 mM DTT, 1% DMSO. Compounds were delivered into the reaction, followed ˜20 min later by addition of a mixture of ATP (Sigma) and 33P ATP (PerkinElmer) to a final concentration of 10 μM. […] IC50 values and curve fits were obtained using Prism (GraphPad Software). Kinome tree representations were prepared using Kinome Mapper (http://www.reactionbiology.com/apps/kinome/mapper/LaunchKinome.htm).

[2] = molecular target: T2, SIK3 (QSK) (SEQ ID NO: 24) (Homo sapiens, UniProt Q9Y2K2); assay: Protein kinase assay, SIK3; conditions: read-out: SIK3 (QSK) (SEQ ID NO: 24) kinase inhibition result
T2 construct: Reaction Biology Corporation (assay service, HotSpot panel)
Experimental: as §1

Chain of SIK2 (QIK) (SEQ ID NO: 11) (Q9H0K1 whole entry): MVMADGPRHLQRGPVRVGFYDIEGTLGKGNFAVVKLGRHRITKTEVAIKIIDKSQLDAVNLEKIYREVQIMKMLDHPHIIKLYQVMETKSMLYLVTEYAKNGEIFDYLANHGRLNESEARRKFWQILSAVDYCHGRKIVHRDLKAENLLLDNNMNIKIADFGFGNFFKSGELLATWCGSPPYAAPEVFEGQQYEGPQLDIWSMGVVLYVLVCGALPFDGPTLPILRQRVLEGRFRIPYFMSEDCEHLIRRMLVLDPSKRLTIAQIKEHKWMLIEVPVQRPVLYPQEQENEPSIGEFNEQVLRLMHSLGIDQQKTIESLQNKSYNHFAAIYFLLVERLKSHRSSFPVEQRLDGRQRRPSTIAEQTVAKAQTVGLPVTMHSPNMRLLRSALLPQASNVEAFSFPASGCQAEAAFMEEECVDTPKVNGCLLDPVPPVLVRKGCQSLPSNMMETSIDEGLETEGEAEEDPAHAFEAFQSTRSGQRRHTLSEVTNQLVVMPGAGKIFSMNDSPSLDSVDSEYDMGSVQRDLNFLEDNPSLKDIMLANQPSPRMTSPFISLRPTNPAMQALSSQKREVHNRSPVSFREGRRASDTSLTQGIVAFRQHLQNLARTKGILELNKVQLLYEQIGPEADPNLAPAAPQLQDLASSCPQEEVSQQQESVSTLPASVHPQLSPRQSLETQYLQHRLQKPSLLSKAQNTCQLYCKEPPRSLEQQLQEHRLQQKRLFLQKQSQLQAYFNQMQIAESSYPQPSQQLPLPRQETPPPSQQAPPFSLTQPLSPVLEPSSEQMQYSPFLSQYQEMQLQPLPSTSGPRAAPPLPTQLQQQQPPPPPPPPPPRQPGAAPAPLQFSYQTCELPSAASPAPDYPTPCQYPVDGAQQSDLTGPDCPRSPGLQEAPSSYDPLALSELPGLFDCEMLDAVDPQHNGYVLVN
T2 sequence (Q9Y2K2 whole entry): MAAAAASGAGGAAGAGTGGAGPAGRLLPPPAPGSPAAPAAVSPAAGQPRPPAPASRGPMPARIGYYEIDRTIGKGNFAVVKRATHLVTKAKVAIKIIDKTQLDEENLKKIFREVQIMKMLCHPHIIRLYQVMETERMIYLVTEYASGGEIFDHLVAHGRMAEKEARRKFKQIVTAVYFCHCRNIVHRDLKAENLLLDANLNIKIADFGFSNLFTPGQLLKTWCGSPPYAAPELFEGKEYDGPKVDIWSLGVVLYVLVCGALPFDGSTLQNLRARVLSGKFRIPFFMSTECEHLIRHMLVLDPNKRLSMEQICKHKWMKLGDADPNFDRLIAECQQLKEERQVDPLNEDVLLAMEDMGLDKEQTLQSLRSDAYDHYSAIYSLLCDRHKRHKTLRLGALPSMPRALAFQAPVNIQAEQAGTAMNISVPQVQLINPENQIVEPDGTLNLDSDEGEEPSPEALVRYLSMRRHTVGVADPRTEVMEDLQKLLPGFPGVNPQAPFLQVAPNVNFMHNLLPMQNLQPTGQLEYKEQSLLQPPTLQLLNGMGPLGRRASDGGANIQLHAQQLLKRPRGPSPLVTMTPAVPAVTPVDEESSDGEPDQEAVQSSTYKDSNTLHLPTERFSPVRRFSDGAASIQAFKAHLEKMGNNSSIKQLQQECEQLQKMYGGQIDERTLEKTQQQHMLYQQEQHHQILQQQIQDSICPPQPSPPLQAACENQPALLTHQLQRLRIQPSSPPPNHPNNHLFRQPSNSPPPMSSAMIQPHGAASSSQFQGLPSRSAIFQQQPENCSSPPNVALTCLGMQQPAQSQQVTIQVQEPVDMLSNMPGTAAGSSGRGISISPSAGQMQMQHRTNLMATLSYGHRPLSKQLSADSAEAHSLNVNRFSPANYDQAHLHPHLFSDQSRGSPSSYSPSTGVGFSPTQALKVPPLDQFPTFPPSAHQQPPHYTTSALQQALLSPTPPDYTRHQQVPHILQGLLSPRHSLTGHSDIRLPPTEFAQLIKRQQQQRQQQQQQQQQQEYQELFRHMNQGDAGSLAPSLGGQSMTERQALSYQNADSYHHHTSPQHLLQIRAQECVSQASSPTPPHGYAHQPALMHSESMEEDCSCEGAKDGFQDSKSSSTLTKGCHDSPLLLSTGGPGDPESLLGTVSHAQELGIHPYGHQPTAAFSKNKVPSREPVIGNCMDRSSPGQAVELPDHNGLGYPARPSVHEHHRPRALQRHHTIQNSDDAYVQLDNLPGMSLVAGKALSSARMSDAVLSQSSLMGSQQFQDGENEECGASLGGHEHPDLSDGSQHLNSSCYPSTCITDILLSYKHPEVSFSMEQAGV
T1 sequence (P57059 whole entry): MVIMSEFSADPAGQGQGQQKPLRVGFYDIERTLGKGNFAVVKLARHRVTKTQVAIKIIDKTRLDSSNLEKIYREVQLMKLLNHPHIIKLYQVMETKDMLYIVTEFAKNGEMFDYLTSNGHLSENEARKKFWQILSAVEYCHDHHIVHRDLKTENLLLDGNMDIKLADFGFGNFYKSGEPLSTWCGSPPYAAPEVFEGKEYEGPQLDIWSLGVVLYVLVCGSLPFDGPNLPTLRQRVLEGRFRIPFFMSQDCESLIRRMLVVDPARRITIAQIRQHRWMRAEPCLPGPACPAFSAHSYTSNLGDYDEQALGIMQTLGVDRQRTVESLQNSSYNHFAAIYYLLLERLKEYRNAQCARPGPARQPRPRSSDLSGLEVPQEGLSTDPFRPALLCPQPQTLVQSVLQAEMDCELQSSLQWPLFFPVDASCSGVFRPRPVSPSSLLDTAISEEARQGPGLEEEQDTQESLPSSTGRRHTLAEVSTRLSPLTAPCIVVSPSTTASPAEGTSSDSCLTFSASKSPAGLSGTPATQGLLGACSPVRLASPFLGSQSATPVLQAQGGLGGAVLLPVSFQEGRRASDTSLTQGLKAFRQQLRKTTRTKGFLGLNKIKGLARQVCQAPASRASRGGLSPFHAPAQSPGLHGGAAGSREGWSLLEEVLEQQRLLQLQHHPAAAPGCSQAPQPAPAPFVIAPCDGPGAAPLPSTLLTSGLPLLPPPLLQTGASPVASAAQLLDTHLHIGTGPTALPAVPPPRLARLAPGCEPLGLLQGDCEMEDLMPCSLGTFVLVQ

SMILES | IC50 [1] [µM] | IC50 (SIK1 (SEQ ID NO: 10)) [µM] | IC50 [2] [µM]
FC1(F)Oc2ccc(-c3c[nH]c4ncc(-c5cnc(N6CCOCC6)s5)cc34)cc2O1 [Example 201, 4-(5-(3-(2,2-difluorobenzo[d][1,3]dioxol-5-yl)-1H-pyrrolo[2,3-b]pyridin-5-yl)thiazol-2-yl)morpholine] | > 1 | > 1 | > 1
CN(C(C)(C)C)S(=O)(=O)c1cccc(-c2cnc3[nH]cc(-c4ccc5c(c4)OC(F)(F)O5)c3c2)c1 [Example 202, N-(tert-butyl)-3-(3-(2,2-difluorobenzo[d][1,3]dioxol-5-yl) 1H-pyrrolo[2,3-b]pyridin-5-yl)-N-methylbenzenesulfonamide] | < 0.1 | > 0.1 | < 0.1
FC1(F)Oc2ccc(-c3c[nH]c4ncc(-c5ccc(CN6CCCC6)s5)cc34)cc2O1 [Example 203, 3-(2,2-difluorobenzo[d][1,3]dioxol-5-yl)-5-(5-(pyrrolidin-1-ylmethyl)thiophen-2-yl)-1H-pyrrolo[2,3-b]pyridine] | < 0.1 | > 1 | > 1
FC1(F)Oc2ccc(-c3c[nH]c4ncc(-c5ccc(CN6CCCCC6)s5)cc34)cc2O1 [Example 204, 3-(2,2-difluorobenzo[d][1,3]dioxol-5-yl)-5-(5-(piperidin-1-ylmethyl)thiophen-2-yl)-1H-pyrrolo[2,3-b]pyridine] | < 0.1 | > 0.1 | < 0.1
FC1(F)Oc2ccc(-c3c[nH]c4ncc(-c5csc(N6CCOCC6)n5)cc34)cc2O1 [Example 205, 4-(4-(3-(2,2-difluorobenzo[d][1,3]dioxol-5-yl)-1H-pyrrolo[2,3-b]pyridin-5-yl)thiazol-2-yl)morpholine] | < 0.1 | > 0.1 | < 0.1
FC1(F)Oc2ccc(-c3c[nH]c4ncc(-c5cnn(C6CCNCC6)c5)cc34)cc2O1 [Example 206, 3-(2,2-difluorobenzo[d][1,3]dioxol-5-yl)-5-(1-(piperidin-4-yl)-1H-pyrazol-4-yl)-1H-pyrrolo[2,3-b]pyridine] | < 0.1 | > 0.1 | < 0.1
COc1c(F)cccc1-c1c[nH]c2ncc(-c3csc(N4CCOCC4)n3)cc12 [Example 207, 4-(4-(3-(3-fluoro-2-methoxyphenyl)-1H-pyrrolo[2,3-b]pyridin-5-yl)thiazol-2-yl)morpholine] | < 0.1 | > 0.1 | < 0.1
COc1c(F)cc(F)cc1-c1c[nH]c2ncc(-c3csc(N4CCOCC4)n3)cc12 [Example 208, 4-(4-(3-(3,5-difluoro-2-methoxyphenyl)-1H-pyrrolo[2,3-b]pyridin-5-yl)thiazol-2-yl)morpholine] | < 0.1 | > 0.1 | < 0.1
FC1(F)Oc2cccc(-c3c[nH]c4ncc(-c5cnn(C6CCNCC6)c5)cc34)c2O1 [Example 209, 3-(2,2-difluorobenzo[d][1,3]dioxol-4-yl)-5-(1-(piperidin-4-yl)-1H-pyrazol-4-yl)-1H-pyrrolo[2,3-b]pyridine] | < 0.1 | < 0.1 | < 0.1
O=C(c1c(F)cccc1F)c1c[nH]c2ncc(-c3cnn(C4CCNCC4)c3)cc12 [Example 210, (2,6-difluorophenyl)(5-(1-(piperidin-4-yl)-1H-pyrazol-4-yl)-1H-pyrrolo[2,3-b]pyridin-3-yl)methanone] | < 0.1 | > 0.1 | < 0.1
COc1c(F)cc(F)cc1-c1c[nH]c2ncc(-c3cnn(S(=O)(=O)N4CCN(C)CC4)c3)cc12 [Example 211, 3-(3,5-difluoro-2-methoxyphenyl)-5-(1-((4-methylpiperazin-1-yl)sulfonyl)-1H-pyrazol-4-yl)-1H-pyrrolo[2,3-b]pyridine] | < 0.1 | > 0.1 | < 0.1
COc1c(F)cc(F)cc1-c1c[nH]c2ncc(-c3cnn(C4CCN(C)CC4)c3)cc12 [Example 212, 3-(3,5-difluoro-2-methoxyphenyl)-5-(1-(1-methylpiperidin-4-yl)-1H-pyrazol-4-yl)-1H-pyrrolo[2,3-b]pyridine] | < 0.1 | > 0.1 | < 0.1
